From patent publication US20180353461A1, “USE OF CANNABINOIDS AS CERAMIDE-GENERATING ANTICANCER AGENTS IN TUMORS OF THE HEMATOPOIETIC AND LYMPHOID TISSUES” (priority 2014, published 2018)

Legend:
Granulocytes = assay: Viability of normal residual granulocytes in bone marrow samples of MM patients (flow cytometry); type: cell-based, human; conditions: all doses tested
Source text: (§1) Human multiple myeloma cell lines MM1.S, MM1.R, RPMI-8226 (RPMI) and U266 were purchased from American Type Culture Collection [(ATCC), LGC Standards, Manassas, USA]. Human primary cells were obtained from MM patients' bone marrow (BM) and healthy donors' peripheral blood (PB). PB samples were collected from buffy coats and leukapheresis products, previously mobilized with granulocyte colony stimulating factor (G-CSF). Hematopoietic progenitor cells (CD34+) were isolated from leukaphesesis samples, and B (CD19+) and T (CD3+) lymphocytes from buffy coats by positive immunomagnetic separation in the AutoMACS pro separator (Miltenyi Biotec, Bergisch Gladbach, Germany). For this purpose CD34-, CD19- and CD3-MACS microbead Human Kit (Miltenyi Biotec, Bergisch Gladbach, Germany). The purity of all isolated cells was higher than 95% in all cases. […]
(§2) Further, cell viability of bone marrow cell populations from patients was assessed by flow cytometry using 7-amino-actinomycin D [(7-AAD), BD Biosciences] together with a combination of monoclonal antibodies against myeloma-associated antigens (anti-CD56-APC, anti-CD45-Pacific Blue, and anti-CD38-APC-H7 [BD Biosciences]) and antibodies to discriminate the granulomonocytic (anti-CD64-FITC) and lymphocytic (anti-CD45-Pacific Blue) populations. […] Fluorescent intensity was quantified and analyzed using Infinicyt™ Software (Cytognos, Salamanca, Spain). […]

[1] = system: myeloma plasma cells (MPCs); assay: Ex vivo viability of myeloma plasma cells from bone marrow of MM patients (flow cytometry, 7-AAD); type: cell-based, human
Source text: as §1, §2

T-cells (CD3+) = assay: Cell viability of T-cells (MTT); type: cell-based, human
blasts from AML patients = assay: Cell viability of blasts from AML patients (MTT); type: cell-based, human
[2] = system: KG1 (acute myelogenous leukemia) and HL60 (Human promyelocytic leukemia cells) cell lines; assay: Cell viability of AML cell lines (MTT / WST-1 assay); type: cell-based; conditions: for cell viability of KG1 and HL60 cell lines as compared to untreated control cells: WIN-55 0.5-50 uM, JWH-133 0.05-1 mM; for concentration from which the cell viability decrease occurs with statistically significant data: FIG. 12 / FIG. 13
Method: Human acute myeloid leukemia cell line KG-1 and human acute promyelocytic leukemia cell line HL60 (American Type Culture Collection) were cultured RPMI 1640 medium (Gibco™, Invitrogen, Barcelona, Spain) with 2 mM L-glutamine, 100 IU/m1 penicillin and 100 ug/ml streptomycin (all from Sigma-Aldrich, St. Louis, Mo., USA), and supplemented with 10% (HL60 cell line) or 20% (KG1 cell line and human primary cells) fetal bovine serum [(FBS), [Thermo Fisher Scientific (Waltham, Mass., USA)] in a humidified atmosphere of CO2/air (5%/95%).
The cannabinoid agonists WIN-55,212-2 mesylate ((R)-(+)-[2,3-dihydro-5-methyl-3-(4-morpholinylmethyl)-pyrrolo-[1,2,3]-1,4-benzoxazin-6-yl]-1-naphthalenylmethanone mesylate) and JWH-133 ((6aR,10aR)-3-(1,1-Dimethylbutyl)-6a,7,10,10a-tetrahydro-6,6,9-trimethyl-6H-dibenzo [b,d] pyran) were purchased from Tocris Bioscience (Bristol, UK) and they was added in the indicated concentrations to culture medium for different incubation periods. Control cells were cultured with the relevant amounts of DMSO.
Cells lines, CD34+ cells and blast were cultured in 96-well plates (5×10e5 cells per well) with the addition of the indicated concentrations of WIN 55,212-2 or JWH-133 in DMSO or with the solvent alone in triplicate. Also we add myoricin together the cannabinoid WIN-55 to see if this effect reversed. Cell viability was determined by the WST-1 [2-(4-lodophenyl)-3-(4-nitrophenyl)-5-(2,4-disulfophenyl)-2H-tetrazolium] assay as per the manufacturer's instructions (Dojindo Molecular Technologies). Optical densities were measured at 450 nm using a plate reader Multiskan™ Go Microplate (Thermo Fisher Scientific, Waltham, Mass., USA).
Firstly, we assessed the effect of cannabinoids WIN-55 and JWH-133 on cell viability. To this end, the cells were treated with increasing concentrations of cannabinoids, WIN-55 (0.5-50 uM) and JWH-133 (0.05-1 mM), for 18 and 48, and viability was analyzed by MTT assays.

[3] = system: hematopoietic stem cells (CD34+); assay: Cell viability of CD34+ hematopoietic stem cells from healthy donors (MTT); type: cell-based, human; conditions: any tested dose

Compound	viability of granulocytes (Granulocytes)	viability of MPCs ([1]; less pronounced as compared to WIN-55)	viability of T-cells (T-cells (CD3+))	cell viability of blasts from AML patients (blasts from AML patients)	cell viability of KG1 and HL60 cell lines as compared to untreated control cells ([2]; 18 h)	concentration from which the cell viability decrease occurs with statistically significant data [2]	cell viability of hematopoietic stem cells (CD34+) [3]	decrease in cell viability of MPCs as compared to control (vehicle-treated) cells ([1]; 50 uM, bone marrow of MM patients)	most sensitive AML cell line ([2]; 18 h)
CCCC(C)(C)c1ccc2c(c1)OC(C)(C)[C@@H]1CC=C(C)C[C@@H]21 [JWH-133, (6aR,10aR)-3-(1,1-Dimethylbutyl)-6a,7,10,10a-tetrahydro-6,6,9-trimethyl-6H-dibenzo [b,d] pyran]	unaffected	decreased viability	remained unaffected	reduce the cell viability	significantly reduced	≥ 500 µM	remained unaffected	–	–
CS(=O)(=O)O.Cc1c(C(=O)c2cccc3ccccc23)c2cccc3c2n1[C@H](CN1CCOCC1)CO3 [WIN-55, (R)-(+)-[2,3-dihydro-5-methyl-3-(4-morpholinylmethyl)-pyrrolo-[1,2,3]-1,4-benzoxazin-6-yl]-1-naphthalenylmethanone mesylate]	unaffected	–	remained unaffected	reduce the cell viability	significantly reduced	≥ 500 µM	remained unaffected	up to 85%	HL60 was the most sensitive
